Reference: ChEMBL document CHEMBL1201862, “PubChem BioAssay data set” (2004)
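A five-concentration, 48-hour dose response in 96-well plates underlies each endpoint, interpolated linearly between surrounding concentrations. Abbreviation: GI50, concentration required for 50% inhibition of growth.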 Activity calls are given as the source filed them. Rule as the data show it: active = GI50 up to about 1.1 µM and inactive = higher.

Key:
Assay in all cases: NCI tumour cell line growth inhibition, 48 h
[1] = test system: LXFL 529
[2] = test system: MOLT-4
[3] = test system: SF-295
[4] = test system: IGROV-1
[5] = test system: LOX IMVI
[6] = test system: UACC-62
[7] = test system: A498
[8] = test system: KM12
[9] = test system: NCI-H522
[10] = test system: SNB-75
[11] = test system: M14
[12] = test system: RXF 631
[13] = test system: NCI-H23
[14] = test system: 786-0
[15] = test system: HOP-92
[16] = test system: NCI-H460
[17] = test system: HT-29
[18] = test system: DMS-273
[19] = test system: HCT-15
[20] = test system: ACHN
[21] = test system: SW-620
[22] = test system: OVCAR-5
[23] = test system: TK-10
[24] = test system: XF498
[25] = test system: RPMI-8226
[26] = test system: SN12C
[27] = test system: OVCAR-8
[28] = test system: SK-OV-3
[29] = test system: SK-MEL-28
[30] = test system: SF-268
[31] = test system: DLD-1
[32] = test system: M19-MEL
[33] = test system: KM-20L2
[34] = test system: SK-MEL-5
[35] = test system: HCT-116
[36] = test system: HCC 2998
[37] = test system: HOP-62
[38] = test system: U-251
[39] = test system: Malme-3M
[40] = test system: K562
[41] = test system: DMS-114
[42] = test system: OVCAR-3
[43] = test system: EKVX
[44] = test system: SNB-78
[45] = test system: OVCAR-4
[46] = test system: UO-31
[47] = test system: SK-MEL-2
[48] = test system: COLO 205
[49] = test system: CCRF-CEM
[50] = test system: SNB-19
[51] = test system: A549
[52] = test system: SF-539
[53] = test system: UACC-257
[54] = test system: NCI-H226
[55] = test system: HL-60
[56] = test system: CAKI-1
[57] = test system: HOP-18
[58] = test system: SR
[59] = test system: RXF 393

Measured: GI50

CC(=O)CCC1(c2ccccc2)OC(=O)C(C#N)=C1c1ccccc1 (configuration not stated)
> 100 µM: [19]
inactive: [1] 59.4 µM | [2] 33.7 µM | [3] > 100 µM | [4] > 100 µM | [5] > 100 µM | [6] > 100 µM | [7] > 100 µM | [8] > 100 µM | [9] 1.53 µM | [10] 29.4 µM | [11] > 100 µM | [12] > 100 µM | [13] > 100 µM | [14] > 100 µM | [15] 50 µM | [16] > 100 µM | [17] > 100 µM | [18] > 100 µM | [20] > 100 µM | [21] > 100 µM | [22] > 100 µM | [23] > 100 µM | [24] > 100 µM | [25] 39.8 µM | [26] > 100 µM | [27] > 100 µM | [28] > 100 µM | [29] > 100 µM | [30] 70 µM | [31] > 100 µM | [32] > 100 µM | [33] > 100 µM | [34] > 100 µM | [35] 47.6 µM | [36] > 100 µM | [37] > 100 µM | [38] 88.1 µM | [39] > 100 µM | [40] 50.6 µM | [41] > 100 µM | [42] 86.3 µM | [43] > 100 µM | [44] > 100 µM | [45] 80.4 µM | [46] 29.2 µM | [47] > 100 µM | [48] > 100 µM | [49] 43.5 µM | [50] > 100 µM | [51] > 100 µM | [52] > 100 µM | [53] > 100 µM

CCC(=O)NCC1(c2c[nH]c3ccccc23)SCCS1
inactive: [1] > 100 µM | [2] 42.4 µM | [3] > 100 µM | [4] > 100 µM | [5] > 100 µM | [6] 63.4 µM | [7] > 100 µM | [8] > 100 µM | [9] > 100 µM | [10] > 100 µM | [11] > 100 µM | [54] > 100 µM | [13] > 100 µM | [14] > 100 µM | [15] > 100 µM | [16] > 100 µM | [55] > 100 µM | [17] 53 µM | [18] > 100 µM | [20] 82 µM | [21] > 100 µM | [22] > 100 µM | [23] > 100 µM | [56] > 100 µM | [24] > 100 µM | [25] > 100 µM | [26] > 100 µM | [27] > 100 µM | [28] > 100 µM | [29] > 100 µM | [30] > 100 µM | [31] > 100 µM | [32] > 100 µM | [33] > 100 µM | [57] > 100 µM | [34] > 100 µM | [35] 48.1 µM | [58] > 100 µM | [36] > 100 µM | [37] > 100 µM | [38] > 100 µM | [39] > 100 µM | [40] > 100 µM | [41] 47.5 µM | [42] > 100 µM | [43] > 100 µM | [44] > 100 µM | [45] > 100 µM | [47] > 100 µM | [48] > 100 µM | [49] > 100 µM | [50] > 100 µM | [51] > 100 µM | [52] > 100 µM | [53] > 100 µM
> 100 µM: [19]

FC(F)(F)c1nc2ccc3[nH]c4c(-c5ccccc5)nccc4c3c2[nH]1
> 100 µM: [19]
inactive: [1] > 100 µM | [2] > 100 µM | [3] > 100 µM | [4] > 100 µM | [5] > 46.8 µM | [6] > 100 µM | [7] > 100 µM | [8] > 100 µM | [9] > 83.8 µM | [10] > 100 µM | [11] > 100 µM | [54] > 100 µM | [12] > 100 µM | [13] > 100 µM | [14] > 100 µM | [15] > 100 µM | [16] > 80 µM | [55] 97.5 µM | [17] > 100 µM | [20] > 100 µM | [21] > 100 µM | [22] > 100 µM | [23] > 100 µM | [56] > 100 µM | [24] > 100 µM | [25] > 42.9 µM | [26] > 100 µM | [27] > 100 µM | [28] > 100 µM | [29] > 100 µM | [30] > 100 µM | [31] > 100 µM | [32] > 100 µM | [33] > 100 µM | [57] > 100 µM | [34] > 100 µM | [35] > 74.5 µM | [58] 17.9 µM | [36] > 100 µM | [37] > 100 µM | [59] > 100 µM | [38] > 100 µM | [39] > 100 µM | [40] > 56.9 µM | [41] > 45.4 µM | [42] > 100 µM | [43] > 100 µM | [44] > 100 µM | [45] > 100 µM | [46] > 100 µM | [47] > 100 µM | [48] > 100 µM | [49] > 45.7 µM | [50] > 100 µM | [51] > 100 µM | [52] > 100 µM | [53] > 100 µM
